Measured values taken from patent US20150329582A1, “SMALL MOLECULE COMPOUNDS SELECTIVE AGAINST GRAM-NEGATIVE BACTERIAL INFECTIONS” (priority 2014, published 2015).
≈ marks a conversion by molar mass, not a printed value.

Legend:
Bacillus subtillis = assay: Minimal Inhibitory Concentration (MIC) test; format: cell-based; settings: Gram positive
[1] = test system: A1408G (S30) mutant bacteria; assay: Growth of wild type or A1408G (S30) mutant bacteria in the presence of Mangrolide A; format: cell-based; settings: grown with or without Mangrolide A, compared with wild type
Experimental: (§1) The error frequency assay was conducted to determine whether a 30S rRNA ribosomal mutant, A1408G is susceptible to Mangrolide A. The mutation site is shown in FIG. 8A. […] (FIG. 8B) When wild type or A1408G (S30) mutant bacteria were grown in wells of a microwell plate containing no additions (No—negative control), Ampicillin or Tetracyclin in the presence or absence of Mangrolide A, A1408G (S30) mutants proliferated similarly to the proliferation of wild type bacteria grown in the absence of Mangrolide A. (FIG. 8C).

[2] = test system: E. coli expressing neomycin phosphotransferase-1 (NPT); assay: Poly(U)-directed polyphenylalanine synthesis, with or without neomycin phosphotransferase-1; format: cell-based; settings: for antibiotic activity against E. coli expressing NPT: E. coli transformed with resistance plasmid expressing neomycin phosphotransferase-1
Experimental: Assay for Polyuridylic Acid [Poly(U)]-Directed-Polyphenylalanine Synthesis.
The reaction mixture contained 400 ug of E. coli B transfer RNA (General Biochemicals, Chagrin Falls, Ohio) per mL, 5 mM spermidine, and [^14C]leucine was replaced with 13 μM [^14C]phenylalanine ([…]). A poly(UUU) RNA template [5′-[…](UUU)12UAAGCAGG-3′ (SEQ ID NO: 1) was used at a concentration of 100 ug per assay. (Legault-Demare and Chambliss, Journal of Bacteriology, 1974, 120(3): 1300-1307).
The assay for polyuridylic acid [poly(U)]-directed-polyphenylalanine synthesis was conducted in the presence or absence of neomycin phosphotransferase-1 (NPT). Wild type E. coli and E. coli transformed with a resistance plasmid expressing neomycin phosphotransferase-1 (NPT) were treated with Mangrolide A and translational error frequency determined.

[3] = test system: Gram-negative bacterial pathogens (Burkholderia cenocepacia J2315, Burkholderia cenocepacia, Pseudomonas aeruginosa PAO1, Acinetobacter baumannii BAA-1793 and …); assay: Minimal Inhibitory Concentration (MIC) test; format: cell-based
Experimental: Minimal Inhibitory Concentration (MIC) Test
The MIC test was performed by adding 2.0 mL of an antibiotic solution (100 ug/mL) to the first tube (out of, e.g., 9 tubes). 1.0 mL of sterile broth was added to all other tubes. 1.0 mL was transferred from the first tube to the second tube. Using a separate pipette, the contents of this tube were mixed and 1.0 mL was transferred to the third tube. Dilutions were continued in this manner through tube number 8. 1.0 mL was removed from tube 8 and discarded. […] Colonies of the culture were suspended to an appropriate turbidity to be tested in 5.0 mL of Mueller-Hinton broth to give a slightly turbid suspension. This suspension was diluted by aseptically pipetting 0.2 mL of the suspension into 40 mL of Mueller-Hinton broth. 1.0 mL of the diluted culture suspension was added to each of the tubes. The final concentration of the antibiotic was one-half of the original concentration in each tube. All tubes were incubated at 35° C. overnight. […]
Antibiotic activity, measured as MIC in μg/mL, of natural Mangrolide A and a synthetic Mangrolide A O-methyl ether derivative were compared against the following Gram-negative microbial pathogens: Burkholderia cenocepacia J2315, Burkholderia cenocepacia, Pseudomonas aeruginosa PAO1, Acinetobacter Baumannii BAA-1793, Acinetobacter baumannii BAA-1605, Escherichia coli (EHEC), and Klebsiella pneumoniae.

[4] = test system: 30S rRNA ribosomal mutant, A1408G; assay: Error frequency assay with 30S rRNA ribosomal mutant; format: biochemical; settings: increasing concentrations of Mangrolide A
Experimental: as §1

[5] = test system: S-30 extract from E. coli (30S ribosomal extract); assay: Error frequency in vitro protein synthesis assay (amino acid misincorporation); format: biochemical; settings: increasing concentrations (μM) of Mangrolide A, 14C-phenylalanine / 3H-leucine incorporation
Experimental: Error Frequency In Vitro Protein Synthesis Assay Using Natural mRNA
72 mM Tris-hydrochloride pH 7.5, 72 mM NH4Cl, 12 mM magnesium acetate, 2.4 mM dithiothreitol (Sigma Co.), 2 mM adenosine triphosphate (ATP), 0.1 mM guanosine triphosphate (GTP), 5 mM phosphoenolpyruvate (Sigma Co.), 20 ug of pyruvate kinase (Sigma Co.) per mL, a mixture of 19 amino acids (each at 72 uM), 13 uM [^14C]leucine (50 counts/min per picomole), 50 ug of calcium folinate (S.P.E.C.I.A., Paris, France) per mL, 0.2 mM DFP, and 0.6 mM Mg Titriplex in a final volume of 0.125 mL per tube. mRNA (1300 μg), an S-30 extract from E. coli (200 μg), or ribosomes plus S-150 (200 μg) and crude initiation factors were added. Incubations were for 30 minutes at 37° C. The extent of amino acid incorporation was determined by measuring the radioactivity remaining insoluble after treatment with hot trichloroacetic acid (90° C. for 15 min). To reduce endogenous mRNA, ribosomes plus 5-150 or S-30 extracts were preincubated just prior to use at 37° C. for 15 min in the reaction mixture described above without [^14C]leucine, the energy generating system and added mRNA.
Assay for Polyuridylic Acid [Poly(U)]-Directed-Polyphenylalanine Synthesis. […]

Staphyloccus aureus = assay: Minimal Inhibitory Concentration (MIC) test; format: cell-based; settings: Gram positive

Structure (SMILES): CC[C@H]1/C=C(\C)[C@@H](O)C/C=C/C=C(\CO)C(=O)O[C@H](C(C)C)C/C=C(C)/C=C(\C)[C@@H]1O[C@@H]1O[C@H](C)[C@@H](O[C@@H]2O[C@H](C)[C@@H](OC)[C@H](O)[C@H]2OC)[C@H](N(C)C)[C@H]1O [Mangrolide A, mangrolide A]
- MIC (Bacillus subtillis): > 32 µg/mL
- susceptibility of A1408G mutant bacteria (growth) [1]: A1408G mutant is resistant
- susceptibility of A1408G mutant bacteria (growth) ([1]; listed as mangrolide): A1408G mutant strain was able to grow on plates with mangrolide, unlike the wildtype
- antibiotic activity against E. coli expressing NPT [2]: inactivated by the expressed neomycin phosphotransferase-1 activity
- antibiotic activity against E. coli expressing NPT ([2]; listed as mangrolide): inactivated by neomycin phosphotransferase-1
- translational error frequency in E. coli expressing NPT ([2]; grown in the presence of Mangrolide A): error frequency comparable to wild type E. coli
- antibiotic potency compared with the Mangrolide A O-methyl ether derivative ([3]; all Gram-negative bacteria tested): more potent antibiotic against all Gram-negative bacteria tested
- MIC range ([3]; range over the Gram-negative bacterial pathogens tested): 0.25 to 1 µg/mL
- misincorporation of amino acids with A1408G mutant [4]: limited misincorporation was induced
- misincorporation of amino acids during protein synthesis [5]: increased misincorporation of amino acids
- misincorporation of amino acids during protein synthesis ([5]; listed as mangrolide): induces misincorporation of amino acids
- MIC (Staphyloccus aureus): 32 µg/mL (≈ 41 µM)
